# Results as given in ChEMBL document CHEMBL1201862, “PubChem BioAssay data set” (2004).
# The source made the active and inactive calls.
# Tests used:
# [1] = tested on: BJ; test: cytotoxicity toward BJ-TERT fibroblasts, dose response, cell-based, RAS-independent, luminescence (AID 1933); type: functional; settings: Homo sapiens
# [2] = tested on: BJ; test: cells; type: functional, cell-based; settings: Homo sapiens
# [3] = target: Luciferin 4-monooxygenase (Photinus pyralis, UniProt P08659); test: firefly luciferase enzyme inhibitors, dose response, biochemical, luminescence (AID 1891)
# [4] = Luminescence Cell-Based Dose Confirmation HTS to Identify Inhibitors of Platelet Dense Granule Release. [Related pubchem assays: 1663 (Primary HTS), 1678 (Summary of Project)]; type: functional
# [5] = tested on: BJ; test: cytotoxicity toward BJ-TERT-LT-ST fibroblasts, dose response, cell-based, RAS-independent, luminescence (AID 1935); type: functional; settings: Homo sapiens;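 note: BJ fibroblasts immortalized with TERT plus LT and ST oncogenes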
# [6] = cytotoxicity toward DRD oncogenic fibroblasts, dose response, cell-based, non-viral oncogenic, luminescence (AID 1934); type: functional; settings: Homo sapiens
# [7] = inhibitors of firefly luciferase expression or activity, dose response, H4 neuroglioma cells, luminescence (AID 1990); type: functional, cell-based
# [8] = Luminescence Cell-Based Dose Response HTS to Identify Inhibitors of 5'UTR Stem-Loop Driven Prion Protein mRNA Translation in H4 Neuroglioblastoma Cells. [Related pubchem assays: 1827 (Project Summary), 1813 (Primary HTS)]; type: functional
# [9] = inhibitors of SNCA 5'UTR-driven reporter translation, confirmation, H4 neuroglioma cells, luminescence (AID 1988); type: functional, cell-based
# [10] = target: Paired box protein Pax-8 (Homo sapiens, UniProt Q06710); test: inhibitors of PAX8-driven TPO luciferase reporter, dose response, RMG-I cells, cherry-pick (AID 687027); type: functional, cell-based;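 note: luciferase reporter driven by Pax8 target thyroperoxidase promoter measured by SteadyGlo luminescence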
# [11] = target: Voltage-dependent T-type calcium channel subunit alpha-1H (Homo sapiens, UniProt O95180); type: functional;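 note: channel activity triggered by adding a high calcium stimulation buffer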
# [12] = target: Cytochrome P450 2D6 (Homo sapiens, UniProt P10635);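 note: CYP2D6 member of a cytochrome P450 panel assay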
# [13] = inhibitors of intracellular T. cruzi replication, confirmation, NIH3T3 host cells, beta-gal luminescence (AID 2044); type: functional, cell-based;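 note: intracellular parasites grown in NIH/3T3 mouse fibroblasts as host cells; luminescent beta-galactosidase reporter signal from transgenic T. cruzi replicating inside host cells; inhibitors lower the luminescence signal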
# [14] = cytotoxicity toward NIH3T3 fibroblasts, dose response, counter-screen, cell-based, ATP luminescence, mouse fibroblasts (AID 2010); type: functional;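 note: cells exposed to compound for about 90 hours before reading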
# [15] = target: T1, Aminopeptidase N (Plasmodium falciparum FcB1/Columbia, UniProt O96935); test: P. falciparum M1AAP inhibitors, biochemical, fluorogenic H-Leu-NHMec substrate, 1536-well (AID 1445); design: species or system Plasmodium falciparum 3D7, 3D7
# T1 sequence (O96935 whole entry): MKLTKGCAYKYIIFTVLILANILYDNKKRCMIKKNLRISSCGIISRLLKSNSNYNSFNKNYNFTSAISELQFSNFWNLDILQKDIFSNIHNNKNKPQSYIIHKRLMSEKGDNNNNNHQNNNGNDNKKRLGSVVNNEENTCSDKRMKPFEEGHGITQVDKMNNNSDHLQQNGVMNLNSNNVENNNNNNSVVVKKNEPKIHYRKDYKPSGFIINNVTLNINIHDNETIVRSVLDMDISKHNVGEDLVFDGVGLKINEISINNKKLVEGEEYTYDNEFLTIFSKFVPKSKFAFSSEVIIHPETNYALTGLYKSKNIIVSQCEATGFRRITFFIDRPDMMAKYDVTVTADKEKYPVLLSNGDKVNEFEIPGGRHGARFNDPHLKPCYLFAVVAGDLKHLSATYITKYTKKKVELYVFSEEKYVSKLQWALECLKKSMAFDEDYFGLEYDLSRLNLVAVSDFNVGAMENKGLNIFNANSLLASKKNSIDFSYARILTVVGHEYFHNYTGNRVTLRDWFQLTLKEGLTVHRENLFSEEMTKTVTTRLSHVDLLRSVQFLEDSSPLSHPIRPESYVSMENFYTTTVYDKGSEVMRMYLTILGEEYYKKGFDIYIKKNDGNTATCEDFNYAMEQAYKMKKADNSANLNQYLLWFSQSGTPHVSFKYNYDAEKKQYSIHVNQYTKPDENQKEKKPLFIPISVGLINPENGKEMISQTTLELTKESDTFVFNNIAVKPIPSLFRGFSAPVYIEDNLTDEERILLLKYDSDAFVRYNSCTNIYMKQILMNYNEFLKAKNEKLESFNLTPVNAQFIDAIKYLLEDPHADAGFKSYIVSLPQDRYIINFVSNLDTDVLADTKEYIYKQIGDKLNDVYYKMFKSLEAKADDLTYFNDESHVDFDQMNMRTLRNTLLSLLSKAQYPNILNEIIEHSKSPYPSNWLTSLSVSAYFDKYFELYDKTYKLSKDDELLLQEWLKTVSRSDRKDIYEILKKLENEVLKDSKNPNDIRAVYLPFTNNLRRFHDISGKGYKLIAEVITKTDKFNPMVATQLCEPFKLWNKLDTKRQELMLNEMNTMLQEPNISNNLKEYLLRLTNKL
# [16] = target: T2, Cytochrome P450 1A2 (Homo sapiens, UniProt P05177);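 note: PubChem cytochrome P450 panel assay, CYP1A2 panel member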
# T2 sequence (P05177 whole entry): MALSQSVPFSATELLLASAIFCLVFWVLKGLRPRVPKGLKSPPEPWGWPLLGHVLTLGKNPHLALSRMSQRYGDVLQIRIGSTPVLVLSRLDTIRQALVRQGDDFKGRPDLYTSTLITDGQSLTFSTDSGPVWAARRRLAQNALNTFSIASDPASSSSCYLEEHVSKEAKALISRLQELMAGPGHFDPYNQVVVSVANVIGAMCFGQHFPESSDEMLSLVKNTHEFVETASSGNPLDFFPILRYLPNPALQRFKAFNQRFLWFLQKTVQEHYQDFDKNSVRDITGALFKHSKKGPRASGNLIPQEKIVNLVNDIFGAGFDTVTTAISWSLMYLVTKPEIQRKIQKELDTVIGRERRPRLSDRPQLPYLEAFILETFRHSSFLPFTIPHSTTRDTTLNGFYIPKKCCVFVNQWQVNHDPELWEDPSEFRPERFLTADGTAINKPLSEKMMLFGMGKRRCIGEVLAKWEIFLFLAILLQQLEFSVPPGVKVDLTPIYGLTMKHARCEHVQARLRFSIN
# [17] = NIH-3T3 fibroblast cytotoxicity, dose response, cytotoxicity control, cell-based, fluorescence, Alamar Blue, secondary assay (AID 2327); type: functional;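 note: NIH-3T3 mouse fibroblasts cultured with fluconazole at 8 µg/mL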
# [18] = C. albicans growth with fluconazole, confirmation, fluorescence, retest (AID 2467); type: functional, cell-based
# [19] = microbe, parasite or virus in culture; type: functional; settings: Mycobacterium tuberculosis
# [20] = target: T3, Mannose-6-phosphate isomerase (Homo sapiens, UniProt P34949); test: human PMI inhibitors, high substrate, primary screen, biochemical, fluorescence intensity, high mannose 6-phosphate (AID 1220)
# T3 sequence (P34949 whole entry): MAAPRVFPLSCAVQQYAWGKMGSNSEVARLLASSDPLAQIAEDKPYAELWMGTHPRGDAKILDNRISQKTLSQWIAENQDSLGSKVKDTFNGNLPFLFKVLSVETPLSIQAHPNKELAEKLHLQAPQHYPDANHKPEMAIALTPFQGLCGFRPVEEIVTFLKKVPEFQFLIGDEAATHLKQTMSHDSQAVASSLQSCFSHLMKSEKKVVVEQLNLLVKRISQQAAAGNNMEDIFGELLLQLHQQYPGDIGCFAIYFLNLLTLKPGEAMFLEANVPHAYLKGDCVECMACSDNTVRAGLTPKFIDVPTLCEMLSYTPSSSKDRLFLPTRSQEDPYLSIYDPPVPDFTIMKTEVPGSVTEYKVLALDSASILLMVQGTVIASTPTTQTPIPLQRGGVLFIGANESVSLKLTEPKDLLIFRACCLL
# [21] = tested on: H9c2; test: cells; type: functional, cell-based; settings: Rattus norvegicus, H9c2, Myocardium;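 note: confirmatory concentration-response retest of ultra-high-throughput screening hits for modulation of myocardial damage; cell death induced by hydrogen peroxide oxidative stress; compound pretreatment for 60 min then peroxide exposure for 2 h; potency is for protecting the cells against peroxide damage rather than for killing them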
# [22] = target: T4, Fatty acid synthase (Homo sapiens, UniProt P49327); test: FAS thioesterase domain inhibitors, dose response, biochemical, endpoint fluorescence intensity, uHTS hits (AID 624327); type: functional;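 note: fluorescence from hydrolysis of an O-methyl fluorescein acyl ester substrate by the enzyme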
# [23] = target: T4, Fatty acid synthase; test: FAS thioesterase domain inhibitors, dose response, biochemical, kinetic fluorescence intensity (AID 624326); type: functional;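 note: rate of fluorescence rise from hydrolysis of a fluorogenic O-methyl fluorescein ester substrate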
# [24] = Luminescence Cell-Based Dose Retest to Confirm Inhibitors of Cancer Stem Cells. [Related pubchem assays (depositor defined):AID2717, AID2721]; type: functional; settings: Homo sapiens
# [25] = HEp-2 cell cytotoxicity, dose response, cytotoxicity control for RSV inhibitor project, HTS (AID 2410); type: functional; settings: human respiratory syncytial virus
# [26] = growth suppression of PTEN-null colon cells, dose response, cell-based, HCT116 PTEN knockout (AID 1047); type: functional;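 note: HCT116 colon tumor cells with PTEN knocked out; cells exposed to compound for 60 hours before readout; potency for loss of cell viability measured by luminescence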
# [27] = growth suppression of beta-catenin-knockout colon cells, dose response, cell-based, HCT116, human colon tumor (AID 1045); type: functional;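 note: HCT116 colon tumor cells with beta catenin knocked out; cells exposed to compound for 60 hours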
# T4 sequence (P49327 whole entry, the tested form may be a part): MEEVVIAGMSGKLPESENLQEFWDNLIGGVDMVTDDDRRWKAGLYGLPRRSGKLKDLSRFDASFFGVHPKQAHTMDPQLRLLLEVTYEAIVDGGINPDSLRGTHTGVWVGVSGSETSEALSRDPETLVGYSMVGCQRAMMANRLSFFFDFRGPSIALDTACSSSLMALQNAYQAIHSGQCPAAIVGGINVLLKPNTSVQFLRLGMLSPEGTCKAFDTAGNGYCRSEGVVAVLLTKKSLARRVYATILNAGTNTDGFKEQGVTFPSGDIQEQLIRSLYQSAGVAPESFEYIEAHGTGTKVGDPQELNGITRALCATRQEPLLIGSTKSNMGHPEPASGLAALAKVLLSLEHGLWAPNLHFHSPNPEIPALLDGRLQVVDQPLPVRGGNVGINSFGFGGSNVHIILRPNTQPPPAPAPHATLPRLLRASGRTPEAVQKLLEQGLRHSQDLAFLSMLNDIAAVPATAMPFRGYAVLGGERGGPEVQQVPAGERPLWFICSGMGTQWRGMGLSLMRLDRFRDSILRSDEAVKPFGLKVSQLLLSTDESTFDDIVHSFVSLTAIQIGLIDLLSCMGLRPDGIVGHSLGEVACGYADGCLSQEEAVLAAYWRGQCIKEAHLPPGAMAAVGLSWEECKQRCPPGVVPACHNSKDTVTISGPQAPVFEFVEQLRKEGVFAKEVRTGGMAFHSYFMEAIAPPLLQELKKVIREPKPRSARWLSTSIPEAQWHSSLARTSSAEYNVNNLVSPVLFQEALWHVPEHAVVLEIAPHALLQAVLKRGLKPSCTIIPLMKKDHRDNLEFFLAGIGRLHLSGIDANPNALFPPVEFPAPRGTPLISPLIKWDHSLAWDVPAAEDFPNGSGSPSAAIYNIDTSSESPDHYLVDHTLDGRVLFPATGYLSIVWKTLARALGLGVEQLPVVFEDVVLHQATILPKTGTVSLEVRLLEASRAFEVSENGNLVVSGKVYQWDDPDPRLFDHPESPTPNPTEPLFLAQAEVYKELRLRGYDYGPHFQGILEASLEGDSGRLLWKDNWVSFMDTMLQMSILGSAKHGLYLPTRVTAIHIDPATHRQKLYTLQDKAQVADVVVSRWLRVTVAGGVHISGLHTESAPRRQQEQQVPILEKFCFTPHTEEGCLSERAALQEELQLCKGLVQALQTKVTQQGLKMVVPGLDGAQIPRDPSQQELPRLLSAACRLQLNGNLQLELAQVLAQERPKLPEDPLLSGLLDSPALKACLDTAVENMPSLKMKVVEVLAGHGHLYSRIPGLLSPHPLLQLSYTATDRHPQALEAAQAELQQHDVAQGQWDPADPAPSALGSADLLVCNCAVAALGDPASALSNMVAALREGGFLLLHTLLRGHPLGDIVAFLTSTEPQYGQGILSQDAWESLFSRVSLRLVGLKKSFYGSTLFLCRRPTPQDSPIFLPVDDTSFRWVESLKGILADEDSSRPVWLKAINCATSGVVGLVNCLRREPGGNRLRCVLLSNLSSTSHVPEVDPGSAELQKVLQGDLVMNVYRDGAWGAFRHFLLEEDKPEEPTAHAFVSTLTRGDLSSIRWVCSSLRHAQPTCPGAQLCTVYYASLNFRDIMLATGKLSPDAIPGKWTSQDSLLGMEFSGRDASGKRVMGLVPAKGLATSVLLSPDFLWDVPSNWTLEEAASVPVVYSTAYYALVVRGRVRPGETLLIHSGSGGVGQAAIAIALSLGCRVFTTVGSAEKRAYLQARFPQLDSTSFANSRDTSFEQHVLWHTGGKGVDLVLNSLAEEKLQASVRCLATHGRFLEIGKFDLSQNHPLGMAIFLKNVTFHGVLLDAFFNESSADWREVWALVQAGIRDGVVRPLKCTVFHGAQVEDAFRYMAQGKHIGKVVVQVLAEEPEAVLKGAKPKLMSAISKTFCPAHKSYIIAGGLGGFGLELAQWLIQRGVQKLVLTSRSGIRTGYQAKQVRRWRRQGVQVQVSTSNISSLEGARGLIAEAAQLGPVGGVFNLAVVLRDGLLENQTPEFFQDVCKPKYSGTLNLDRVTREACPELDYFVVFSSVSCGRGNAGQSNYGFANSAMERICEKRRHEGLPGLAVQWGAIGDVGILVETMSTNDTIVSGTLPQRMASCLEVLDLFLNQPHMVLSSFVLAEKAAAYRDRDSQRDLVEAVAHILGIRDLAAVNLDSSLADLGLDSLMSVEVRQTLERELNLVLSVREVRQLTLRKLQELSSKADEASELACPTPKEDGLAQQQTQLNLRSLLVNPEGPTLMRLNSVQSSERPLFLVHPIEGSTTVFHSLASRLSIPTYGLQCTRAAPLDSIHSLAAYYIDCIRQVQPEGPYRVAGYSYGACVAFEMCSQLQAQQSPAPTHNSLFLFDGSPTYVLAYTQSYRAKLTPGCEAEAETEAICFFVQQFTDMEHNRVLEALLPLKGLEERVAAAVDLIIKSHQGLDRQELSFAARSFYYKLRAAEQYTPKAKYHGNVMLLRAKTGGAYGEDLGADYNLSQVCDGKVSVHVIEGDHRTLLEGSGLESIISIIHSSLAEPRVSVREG
# Chain of Voltage-dependent T-type calcium channel subunit alpha-1H (O95180 whole entry): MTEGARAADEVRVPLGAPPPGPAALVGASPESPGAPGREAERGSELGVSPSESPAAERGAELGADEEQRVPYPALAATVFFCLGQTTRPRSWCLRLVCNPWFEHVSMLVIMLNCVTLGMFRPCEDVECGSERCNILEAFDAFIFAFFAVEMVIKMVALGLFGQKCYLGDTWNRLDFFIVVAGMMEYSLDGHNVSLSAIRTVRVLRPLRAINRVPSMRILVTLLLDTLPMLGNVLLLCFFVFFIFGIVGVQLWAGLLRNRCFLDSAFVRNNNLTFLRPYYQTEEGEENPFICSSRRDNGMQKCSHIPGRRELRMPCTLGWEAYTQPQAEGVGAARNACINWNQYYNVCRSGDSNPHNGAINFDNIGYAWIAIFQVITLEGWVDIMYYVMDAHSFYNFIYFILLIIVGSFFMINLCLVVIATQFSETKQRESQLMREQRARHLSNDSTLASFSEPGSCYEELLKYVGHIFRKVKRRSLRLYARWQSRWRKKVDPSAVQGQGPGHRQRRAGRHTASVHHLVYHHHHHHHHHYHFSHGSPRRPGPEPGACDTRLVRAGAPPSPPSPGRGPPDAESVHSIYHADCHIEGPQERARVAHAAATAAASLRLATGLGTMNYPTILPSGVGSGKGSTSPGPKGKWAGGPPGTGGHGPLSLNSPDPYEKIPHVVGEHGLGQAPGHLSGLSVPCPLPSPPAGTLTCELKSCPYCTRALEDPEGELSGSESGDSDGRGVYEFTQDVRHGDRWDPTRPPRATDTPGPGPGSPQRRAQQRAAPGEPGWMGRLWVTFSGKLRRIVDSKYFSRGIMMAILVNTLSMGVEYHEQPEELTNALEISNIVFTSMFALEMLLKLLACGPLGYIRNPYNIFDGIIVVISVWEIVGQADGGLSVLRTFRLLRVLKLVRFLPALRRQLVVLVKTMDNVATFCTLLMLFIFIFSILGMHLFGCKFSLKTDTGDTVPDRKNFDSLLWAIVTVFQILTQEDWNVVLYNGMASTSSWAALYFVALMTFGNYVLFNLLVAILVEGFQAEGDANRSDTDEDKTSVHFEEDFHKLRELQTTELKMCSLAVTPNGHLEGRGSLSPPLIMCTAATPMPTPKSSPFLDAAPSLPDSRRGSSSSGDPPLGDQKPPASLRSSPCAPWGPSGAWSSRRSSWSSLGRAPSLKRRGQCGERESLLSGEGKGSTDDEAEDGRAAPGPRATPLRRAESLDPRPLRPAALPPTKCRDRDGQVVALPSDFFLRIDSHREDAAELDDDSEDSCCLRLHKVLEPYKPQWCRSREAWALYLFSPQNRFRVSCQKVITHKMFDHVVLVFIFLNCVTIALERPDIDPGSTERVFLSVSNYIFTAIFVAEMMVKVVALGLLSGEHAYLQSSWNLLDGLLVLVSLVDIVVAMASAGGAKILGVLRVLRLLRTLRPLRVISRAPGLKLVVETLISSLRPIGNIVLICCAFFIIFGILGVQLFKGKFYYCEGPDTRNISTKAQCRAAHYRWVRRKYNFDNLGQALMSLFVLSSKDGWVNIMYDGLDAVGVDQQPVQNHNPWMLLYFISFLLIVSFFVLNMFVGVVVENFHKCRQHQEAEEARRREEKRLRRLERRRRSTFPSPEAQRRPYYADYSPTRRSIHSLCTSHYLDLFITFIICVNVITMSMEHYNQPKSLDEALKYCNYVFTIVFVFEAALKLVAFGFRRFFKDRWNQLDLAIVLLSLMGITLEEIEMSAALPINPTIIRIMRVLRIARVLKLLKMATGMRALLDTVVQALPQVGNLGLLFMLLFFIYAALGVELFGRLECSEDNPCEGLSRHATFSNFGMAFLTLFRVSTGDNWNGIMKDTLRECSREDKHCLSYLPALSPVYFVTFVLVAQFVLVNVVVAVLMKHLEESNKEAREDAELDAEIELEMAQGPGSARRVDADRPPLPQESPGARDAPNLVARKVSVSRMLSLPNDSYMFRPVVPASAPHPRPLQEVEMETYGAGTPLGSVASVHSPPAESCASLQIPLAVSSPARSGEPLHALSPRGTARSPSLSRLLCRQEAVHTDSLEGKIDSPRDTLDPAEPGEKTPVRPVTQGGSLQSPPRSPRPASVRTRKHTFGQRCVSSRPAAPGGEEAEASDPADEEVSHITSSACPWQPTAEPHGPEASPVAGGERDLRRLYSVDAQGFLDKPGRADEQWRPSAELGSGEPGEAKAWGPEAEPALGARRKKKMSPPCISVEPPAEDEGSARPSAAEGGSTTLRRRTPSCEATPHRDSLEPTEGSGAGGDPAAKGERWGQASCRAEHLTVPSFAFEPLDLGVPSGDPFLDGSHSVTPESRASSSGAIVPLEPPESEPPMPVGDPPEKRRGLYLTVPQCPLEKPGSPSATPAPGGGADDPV
compound,measurement,setting,value
OC[C@H]1O[C@@H](n2cnc3c(NCCc4ccccc4)ncnc32)[C@H](O)[C@@H]1O,EC50,[1],15.2 µM (inconclusive)
same,EC50,[2],35.4 µM (active)
same,EC50,[3],> 112 µM (not active)
same,EC50,[4],0.893 µM (active)
same,EC50,[5],> 150 µM (not active)
same,EC50,[6],18.9 µM (active)
O=C(NCCN1C(=O)S/C(=C\c2ccc(OC(F)F)cc2)C1=O)c1cnccn1,EC50,[7],> 120 µM (not active)
same,EC50,[8],26.3 µM (active)
same,EC50,[9],> 120 µM (not active)
same,AC50,[10],15.5 µM (active)
COc1cccc(N(C(=O)Cn2nnc(-c3ccc(C)cc3)n2)C(C(=O)NC(C)(C)C)c2c[nH]c3ccccc23)c1 (configuration not stated),EC50,[11],8.67 µM (active)
same,AC50,[12],20 µM (inconclusive)
CCOc1ccccc1CNC(=O)C1CCN(c2nnc(C)c3c(C)n(-c4ccc(C)cc4)nc23)CC1,EC50,[7],8.11 µM (active)
same,EC50,[8],12.6 µM (active)
same,EC50,[9],9.02 µM (active)
same,EC50,[13],1.45 µM (active)
same,EC50,[14],9.4 µM (active)
Cc1ccc(-c2csc3ncnc(SCc4ccc(C(=O)O)cc4)c23)cc1,IC50,[15],44.6 µM (active)
COc1ccc(CNc2nc3ccccc3n2Cc2ccccc2)cc1OC,EC50,[11],7.3 µM (active)
same,AC50,[16],22.4 µM (inconclusive)
CC1(C)CC(=O)c2c(oc3ccc(NS(=O)(=O)c4ccc(C(=O)O)cc4)cc23)C1,IC50,[15],26 µM (active)
Cc1ccc(NCc2ccc(O)c3ncccc23)cc1C,EC50,[17],> 160 µM (inconclusive)
same,EC50,[18],> 38 µM (not active)
same,CC50,[19],33.9 µM (active)
same,IC50,[20],> 50 µM (not active)
same,IC50,[21],> 79 µM (inactive)
CS(=O)(=O)N1CCc2cc(-c3csc(NC(=O)Cc4ccccc4)n3)ccc21,EC50,[7],> 120 µM (not active)
same,EC50,[8],20.9 µM (active)
same,EC50,[9],> 120 µM (not active)
same,EC50,[13],1.08 µM (active)
same,EC50,[14],> 60 µM (not active)
same,IC50,[22],8.79 µM (active)
same,IC50,[23],5.12 µM (active)
Cc1ccccc1C(=O)NC1CCN(C(=O)N2CCOCC2)CC1,EC50,[3],> 112 µM (not active)
same,EC50,[4],> 112 µM (not active)
COCCNc1nc(N)c([N+](=O)[O-])c(NC2CCCCC2)n1,EC50,[7],16.2 µM (active)
same,EC50,[8],> 120 µM (not active)
same,EC50,[9],77.7 µM (active)
Cc1cc(C)c(NC(=O)C(C)c2cccc(C(=O)c3ccccc3)c2)c(C)c1 (configuration not stated),EC50,[11],3.26 µM (active)
COc1ccc(-c2nc(C[S+]([O-])CC(=O)NC3CCCCC3C)c(C)o2)cc1 (configuration not stated),EC50,[3],> 112 µM (not active)
same,EC50,[4],> 112 µM (not active)
Cc1cc(N2CCN(c3ccc(C(F)(F)F)cc3[N+](=O)[O-])CC2)c2ccccc2n1,CC50,[19],> 40 µM (active)
same,AC50,[24],0.726 µM (active)
CC(C)c1ccc(NC(S)=NC2CCN(Cc3ccccc3)CC2)cc1,CC50,[25],20.6 µM (active)
same,EC50,[3],> 112 µM (not active)
same,EC50,[4],> 112 µM (not active)
CCOC(=O)N1CCN(Cc2cc(=O)oc3cc4c(cc23)CCC4)CC1,EC50,[3],> 112 µM (not active)
same,EC50,[4],> 112 µM (not active)
Cc1snc(S(=O)(=O)/C(C#N)=N/Nc2cccc(C(F)(F)F)c2)c1C#N,EC50,[11],7.53 µM (active)
CCO/C(O)=C1\C(C)=NC(SCC(=O)Nc2nc(C)cs2)=C(C#N)C1c1cccs1 (configuration not stated),CC50,[19],> 40 µM (active)
same,EC50,[26],14.5 µM (active)
same,EC50,[27],16.6 µM (active)
O=C(N/C(=C/C=C\c1ccccc1)C(=O)N1CCOCC1)c1ccc(Br)cc1,EC50,[7],> 120 µM (not active)
same,EC50,[8],> 120 µM (not active)
same,EC50,[9],> 120 µM (not active)
same,IC50,[22],7.92 µM (active)
same,IC50,[23],7.63 µM (active)
